As usually defined, the IC50 is the concentration that inhibits the measured activity by half. Low values mean higher potency, high ones lower potency. By inhibition is commonly meant the percentage by which the read-out fell short of the control.

Structures can show the parent of a compound that is named as a salt.

For test [1], the system named is Spontaneously hypertensive rats (SHR). The test is described as follows: antihypertensive activity in conscious spontaneously hypertensive rats (SHR), iv. The format is in vivo, rat. The settings on record: for ED25: Rattus norvegicus, 5 min, iv, 5 minutes after each cumulative dose, read-out: SHR iv ED25, mean arterial pressure. As for the experimental part:
After a 2 day recovery from surgery, three baseline blood pressure measurements were made at 5 min intervals in conscious SHR. Compounds to be tested or vehicle were then administered intravenously in a dose-dependent manner (0.3-10 mg base/kg) while arterial pressure was recorded continuously on a polygraph. The mean arterial pressure response was measured 5 minutes after the administration of each dose of the test compound and the next dose given in a cumulative dose fashion. The response to each dose of the test compound was calculated as the difference from the mean of the three baseline measurements.

In test [2] the target is T1, cGMP-PDE V (Homo sapiens, UniProt O76074).
T1 construct: The cGMP-PDE and other PDE isozymes were isolated from cardiovascular tissues (heart and aorta); from tissue; host or cells: cardiovascular tissues (heart and aorta) of various animal species and man
Put plainly: c-GMP-PDE V inhibitory activity (cyclic nucleotide hydrolysis by isolated PDE isozymes). Conditions: for inhibition at 10 µM: read-out: Percent Inhibition cGMP-PDE V. Type of test: biochemical, various animal species and man. The method, then:
The cGMP-PDE and other PDE isozymes were isolated from cardiovascular tissues (heart and aorta) of various animal species and man by anion-exchange and affinity chromatography as described by Silver et al., Sec. Messeng. Phos. 13: 13-25, 1991; PDE activity, in the presence and absence of test compounds was determined essentially as described by Thompson et al., Adv. Cyclic Nucleotide Res. 10: 69-92. To determine the potency and selectivity of compounds as PDE inhibitors, compounds are screened for their effect on cyclic nucleotide hydrolysis at 10 μM. If ≥50% inhibition of PDE activity is observed, an IC50 value (concentration of compound causing 50% reduction in PDE activity) and corresponding 95% confidence intervals are generated. The IC50 values are calculated from concentration-response curves as described by Tallarida and Murray, Manual of Pharmacologic Calculations with Computer Programs, Procedure 8, Graded Dose-response, pp. 14-19, Springer-Verlag, New York, 1981.

Test [3] concerns the target T1, cGMP-PDE V. Described as above. The format is biochemical, various animal species and man. Conditions: read-out: Percent Inhibition cGMP-PDE V.
The next test concerns interferon. The settings on record: Crenshaw et al.; cited from earlier work.

On to `CCn1ncc2c(NCc3ccccc3)c3ccccc3nc21` [1(a), 1-ethyl-N-(phenylmethyl)-1H-pyrazolo[3,4-b]quinolin-4-amine], for which, in test [1], the ED25 was 25 mg/kg. Also, the IC50 at cGMP-PDE V [2] worked out at 210 nM.
Regarding `CCn1ncc2c(NCCc3ccccc3)c3ccccc3nc21` [2(c), 1-ethyl-N-(phenylethyl)-1H-pyrazolo[3,4-b]quinoline-4 amine], in test [1], the ED25 amounted to 16.5 mg/kg. The compound also yielded an IC50 against cGMP-PDE V [2] of 4200 nM.
Consider `CC(C)n1ncc2c(NCc3ccccc3)c3ccccc3nc21` [4(c), 1-isopropyl-N-(phenylmethyl)-1H-pyrazolo[3,4-b]quinolin-4-amine], for which the IC50 against cGMP-PDE V [2] amounted to 180 nM.
With `CCn1ncc2c(NCc3ccccc3)c3ccc(OC)cc3nc21` [5(e), 1-ethyl-7-methoxy-N-(phenylmethyl)-1H-pyrazolo[3,4-b]quinolin-4-amine], the inhibition at 10 µM on cGMP-PDE V [2] came out at 85%. On cGMP-PDE V [3], the inhibition at 0.1 µM was determined as 14% and the inhibition at 1 µM was found to be 54%.
Take `CCn1nc(C)c2c(NCc3ccccc3)c3ccccc3nc21` [9(d), 1-ethyl-3-methyl-N-(phenylmethyl)-1H-pyrazolo[3,4-b]quinolin-4-amine·HCl]: the midpoint of inhibition against cGMP-PDE V [2], the IC50, lay at 170 nM.
As to `CCn1ncc2c(NCc3ccc(OCCN4CCOCC4)cc3)c3ccccc3nc21` [15(c), 1-ethyl-N-[4-[2-(4-morpholinyl)ethoxy]phenylmethyl]-1H-pyrazolo[3,4-b]quinolin-4-amine], on cGMP-PDE V [2], the inhibition at 10 µM worked out at 34%. Further, at cGMP-PDE V [3], the inhibition at 0.1 µM was found to be 0% and the inhibition at 1 µM was found to be 20%.
With `CCn1ncc2c(NCc3ccc(O)cc3)c3ccccc3nc21` [18(a), 1-ethyl-N-(4-hydroxyphenylmethyl)-1H-pyrazolo[3,4-b]quinolin-4-amine CH3 SO3 H], the IC50 on cGMP-PDE V [2] was 91 nM.
In the case of `CCn1ncc2c(NCc3ccc(O)cc3)c3ccccc3nc21` [18(b), 1-ethyl-N-(4-hydroxyphenylmethyl)-1H-pyrazolo[3,4-b]quinolin-4-amine], the inhibition at 10 µM on cGMP-PDE V [2] was 78%. For the same compound, on cGMP-PDE V [3], the inhibition at 0.1 µM came to 63% and the inhibition at 1 µM is 82%.
In the case of `CCn1ncc2c(NCc3ccc(OC)cc3)c3cc(OC)ccc3nc21` [23(c), 1-ethyl-6-methoxy-N-(4-methoxyphenylmethyl)-1H-pyrazolo[3,4-b]quinolin-4-amine·CH3 SO3 H], the “SHR iv % change in mean arterial pressure” value (shortened to “SHR iv % change”) in test [1] (1 mg/kg iv) is -7%; in test [1] (3 mg/kg iv) it was -4%. On cGMP-PDE V [2], this compound yielded an IC50 of 14 nM.
On cGMP-PDE V [2], `CCn1ncc2c(NCc3ccc(OC)cc3)c3ccccc3nc21` [Example 3, 1-ethyl-N-(4-methoxyphenylmethyl)-1H-pyrazolo[3,4-b]quinolin-4-amine·HCl·1/2H2 O] gave an IC50 of 89 nM.
In the case of `CCn1ncc2c(NCc3ccccc3)c3ccc(O)cc3nc21` [Example 6, 1-ethyl-7-hydroxy-N-(phenylmethyl)-1H-pyrazolo[3,4-b]quinolin-4-amine], the inhibition at 10 µM on cGMP-PDE V [2] came to 85%. On cGMP-PDE V [3], the inhibition at 0.1 µM turned out to be 17% and the inhibition at 1 µM is 50%.
As for `CCn1ncc2c(NCc3ccc(OC)c(OC)c3)c3ccccc3nc21` [Example 7, 1-ethyl-N-(3,4-dimethoxyphenylmethyl)-1H-pyrazolo[3,4-b]quinolin-4-amine], the IC50 on cGMP-PDE V [2] is 180 nM.
Regarding `CCn1ncc2c(NCc3ccncc3)c3ccccc3nc21` [Example 8, 1-ethyl-N-(4-pyridinylmethyl)-1H-pyrazolo[3,4-b]quinolin-4-amine], the inhibition at 10 µM at cGMP-PDE V [2] came to 50%. Further, on cGMP-PDE V [3], the inhibition at 0.1 µM was determined as 0% and the inhibition at 1 µM stood at 5%.
As to `CCn1ncc2c(NCc3ccc(C#N)cc3)c3ccccc3nc21` [Example 10, 1-ethyl-N-(4-cyanophenylmethyl)-1H-pyrazolo[3,4-b]quinolin-4-amine], the inhibition at 10 µM on cGMP-PDE V [2] is 57%. The inhibition at 1 µM at cGMP-PDE V [3] amounted to 0%.
As for `CCn1ncc2c(NCc3cccc(OC)c3)c3ccccc3nc21` [Example 11, 1-ethyl-N-(3-methoxyphenylmethyl)-1H-pyrazolo[3,4-b]quinolin-4-amine], the IC50 against cGMP-PDE V [2] was found to be 450 nM.
Still for that read-out and setting: with `Cc1nn(C)c2nc3ccccc3c(NCc3ccccc3)c12` [Example 12(c), 1,3-dimethyl-N-(phenylmethyl)-1H-pyrazolo[3,4-b]quinolin-4-amine] the figure was 1140 nM; with `CCn1ncc2c(NCc3cccc(O)c3)c3ccccc3nc21` [Example 13, 1-ethyl-N-(3-hydroxyphenylmethyl)-1H-pyrazolo [3,4-b]quinolin-4-amine], 150 nM.
On the same count and under the same terms, with `CCn1ncc2c(NCc3cccc(O)c3)c3ccccc3nc21` [Example 14, 1-ethyl-N-(3-hydroxyphenylmethyl)-1H-pyrazolo[3,4-b]quinolin-4-amine·2 CH3 SO3 H] the figure was 86 nM.
As for `CCn1ncc2c(NCc3ccco3)c3ccccc3nc21` [Example 16, 1-ethyl-N-(2-furanylmethyl)-1H-pyrazolo[3,4-b]quinolin-4-amine], in test [1] (10 mg/kg iv), the “SHR iv % change” value is given as -16%.
As to `CCn1ncc2c(NCc3cccnc3)c3ccccc3nc21` [Example 19, 1-ethyl-N-(3-pyridinylmethyl)-1H-pyrazolo[3,4-b]quinolin-4-amine ·2CH3 SO3 H], at cGMP-PDE V [2], the inhibition at 10 µM came to 75%. Also, on cGMP-PDE V [3], the inhibition at 0.1 µM was 10% and the inhibition at 1 µM turned out to be 43%.
With `CCn1ncc2c(N(C)Cc3ccccc3)c3ccccc3nc21` [Example 20, 1-ethyl-N-(methyl)-N-(phenylmethyl)-1H-pyrazolo[3,4-b]quinolin-4-amine·CH3 SO3 H], the IC50 on cGMP-PDE V [2] turned out to be 1260 nM.
As to `CCn1ncc2c(NCc3ccccn3)c3ccccc3nc21` [Example 21, 1-ethyl-N-(2-pyridinylmethyl)-1H-pyrazolo[3,4-b]quinolin-4-amine-2CH3SO3 H], the inhibition at 10 µM on cGMP-PDE V [2] was 97%. On cGMP-PDE V [3], the inhibition at 0.1 µM is 27% and the inhibition at 1 µM is 58%.
The matching figures for `CCn1ncc2c(NC3CCc4ccccc43)c3ccccc3nc21` (centres unmarked) [Example 22, 1-ethyl-N-(1-indanyl)-1H-pyrazolo[3,4-b]quinolin-4-amine·CH3 SO3 H]: 94%, 34% and 75%.
With `CCn1ncc2c(NCc3ccc(O)cc3)c3cc(O)ccc3nc21` [Example 24, 1-ethyl-6-hydroxy-N-(4-hydroxyphenylmethyl)-1H-pyrazolo[3,4-b]quinolin-4-amine-CH3 SO3 H], the entries for the “SHR iv % change” value in test [1] (1 mg/kg iv), in test [1] (3 mg/kg iv) and in test [1] (10 mg/kg iv) were -10%, -9% and -15%, respectively. At cGMP-PDE V [2], this compound yielded a concentration for half-maximal inhibition (IC50) of 120 nM.
On to `Cc1nn(C)c2nc3ccccc3c(NCCCNC34CC5CC(CC(C5)C3)C4)c12` [N-(1,3-dimethyl-1H-pyrazolo[3,4-b]quinolin-4-yl)-N'-tricyclo[3.3.1.1^3,7]dec-1-yl-1,3-propane diamine], for which the “activity in the interferon assay” value in the test with interferon is “inactive”.
As to `Cc1nn(C)c2nc3ccccc3c(NCc3cccnc3)c12` [N-(3-pyridinylmethyl), N-(3-pyridinylmethyl)-1,3-dimethyl-1H-pyrazolo[3,4-b] quinolin-4-amine], the “activity in the interferon assay” value with interferon was “inactive”.
Turning to `Cc1nn(C)c2nc3ccccc3c(NCc3ccccc3N(C)C)c12` [N-[[2-(dimethylamino)phenyl]methyl]-1,3-dimethyl-1H-pyrazolo[3,4-b] quinolin-4-amines], the “activity in the interferon assay” value in the test on interferon is “inactive”.
With `Cc1nn(C)c2nc3ccccc3c(NC3CC3)c12` [N-cyclopropyl, N-cyclopropyl-1,3-dimethyl-1H-pyrazolo[3,4-b] quinolin-4-amine], the “activity in the interferon assay” value in the test with interferon is “inactive”.
Consider `Cc1nn(C)c2nc3ccccc3c(NC34CC5CC(CC(C5)C3)C4)c12` [N-tricyclo[3.3.1.1^3,7]dec-1-yl, N-tricyclo[3.3.1.1^3,7]dec-1-yl-1,3-dimethyl-1H-pyrazolo[3,4-b] quinolin-4-amine], for which, in the test with interferon, the “activity in the interferon assay” value was “inactive”.

Source of the values: patent US6008226A, “Substituted N-arylmethyl and heterocylylmethyl-1H-pyrazolo[3,4-b]quinolin-4-amines and compositions and methods of use thereof” (Sanofi-Synthelabo, priority 1998, dated 1999).
